Literature values in US20240423900A1, “ANHYDROUS BARRIER AND ANTIOXIDANT COMPOSITIONS” (Baek Clinical Inc., priority 2023, published 2024).

Assays:
[1] = general statement, no test described
human skin = details: general statement, no test described

## CC(C)CCCC(C)CCCC(C)CCCCC(C)CCCC(C)CCCC(C)C (centres unmarked) [Squalane, squalane]
[1]
  acute toxicity: low acute toxicity
Human skin
  human skin irritant or sensitizer: not a significant human skin irritant or sensitizer
